Measured values: ChEMBL document CHEMBL1151553, “Two novel amino acid derivatives containing side-chain thioamides for the synthesis of photoactivatable peptides” (Bioorg Med Chem Lett, 1997)
pIC50: −log10 of the molar value. Numbered stars: 1 amine (or outer) side, 2 acyl side, 3 side chain; on linkers, the order of the positions; unused ones are H or OH. Square brackets hold non-standard residues; d marks the D form. Peptide text beside a SMILES is read from it. X2 = O=C([C@@H](Cc1ccc(NC(=S)Cc2ccccc2)cc1)N[*:1])[*:2]; X1 = O=C([C@@H](Cc1ccc(NC(=S)c2ccccc2)cc1)N[*:1])[*:2]; hCys = N[C@@H](CCS)C(=O)O

Biological target: T1, Substance-K receptor (Homo sapiens, UniProt P21452)
T1 sequence (P21452 whole entry): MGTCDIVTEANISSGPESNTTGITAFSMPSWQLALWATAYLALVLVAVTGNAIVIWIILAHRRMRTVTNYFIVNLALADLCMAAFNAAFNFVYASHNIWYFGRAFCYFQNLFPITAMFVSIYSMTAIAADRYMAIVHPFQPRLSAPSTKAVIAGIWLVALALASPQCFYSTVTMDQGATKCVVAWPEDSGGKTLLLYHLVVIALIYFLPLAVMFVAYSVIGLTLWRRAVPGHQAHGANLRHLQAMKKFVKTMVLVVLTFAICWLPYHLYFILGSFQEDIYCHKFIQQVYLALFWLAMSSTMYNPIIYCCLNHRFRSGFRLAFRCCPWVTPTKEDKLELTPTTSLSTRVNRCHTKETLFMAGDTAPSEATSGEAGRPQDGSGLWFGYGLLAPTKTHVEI
Assay: Tested for the binding affinity to human NK2 receptor expressed in Sf-9 insect larval cells using 0.1 nM 2-[125 I] iodohistidyl neurokinin A
Type: functional

pIC50	Compound
7.27	CC(C)C[C@H](NC(=O)CNC(=O)[C@@H](NC(=O)[C@H](Cc1ccccc1)NC(=O)[C@H](CO)NC(=O)[C@H](CC(=O)O)NC(=O)[C@@H](NC(=O)[C@H](CCCCN)NC(=O)[C@@H](Cc1ccc(NC(=S)Cc2ccccc2)cc1)NC(=O)[C@@H](N)Cc1ccc(O)cc1)[C@@H](C)O)C(C)C)C(=O)N[C@@H](CCS)C(N)=O (H-Y[X2]KTDSFVGL[hCys]-NH2)
8.11	CC(C)C[C@H](NC(=O)CNC(=O)[C@@H](NC(=O)[C@H](Cc1ccccc1)NC(=O)[C@H](CO)NC(=O)[C@H](CC(=O)O)NC(=O)[C@@H](NC(=O)[C@H](CCCCN)NC(=O)[C@@H](Cc1ccc(NC(=S)c2ccccc2)cc1)NC(=O)[C@@H](N)Cc1c[nH]cn1)[C@@H](C)O)C(C)C)C(=O)N[C@@H](CCS)C(N)=O (H-H[X1]KTDSFVGL[hCys]-NH2)
